Experimental data reported in paper PMC4456216 (Nature structural & molecular biology, 2015).

How the values were obtained:
CRY1 CC peptide = test: Isothermal titration calorimetry; design: species or system mouse; conditions: read-out: Dissociation constant (KD), CRY1 CC, ITC, 25°C, 10 mM MES pH 6.5, 50 mM NaCl, CRY1 CC titrated into TAD, KD from a representative experiment with standard error for fit to one-site binding model (n = 2 or 3), nd = no detectable binding under experimental conditions
CBP KIX domain = test: Isothermal titration calorimetry; design: species or system mouse; conditions: read-out: Dissociation constant (KD), CBP KIX, ITC, 25°C, 10 mM MES pH 6.5, 50 mM NaCl, CBP KIX titrated into TAD, KD from a representative experiment with standard error for fit to one-site binding model (n = 2 or 3), nd = no detectable binding under experimental conditions

Kd (CRY1 CC peptide): 19.7 ± 2.57 µM
Kd (CBP KIX domain): 4.44 ± 0.23 µM
Substance: BMAL1 619X: BMAL1 TAD truncation mutant that removed the C-terminal seven residues
